Test results taken from patent publication US20250382303A1, “NOVEL COMPOUND AS NADPH OXIDASE 2 INHIBITOR AND PHARMACEUTICAL COMPOSITION CONTAINING SAME” (DONGGUK UNIVERSITY INDUSTRY-ACADEMIC COOPERATION FOUNDATION, priority 2022, published 2025).
pIC50: −log10 of the molar value.

Biological target: T1, NOX2 (Homo sapiens, UniProt P04839)
T1 construct: Used for the NOX2 activity assay was human leukemia 60 cells (HL-60), which are widely, universally used to assess NOX2 activity; endogenous in cells
T1 sequence (P04839 2-570 limits assumed): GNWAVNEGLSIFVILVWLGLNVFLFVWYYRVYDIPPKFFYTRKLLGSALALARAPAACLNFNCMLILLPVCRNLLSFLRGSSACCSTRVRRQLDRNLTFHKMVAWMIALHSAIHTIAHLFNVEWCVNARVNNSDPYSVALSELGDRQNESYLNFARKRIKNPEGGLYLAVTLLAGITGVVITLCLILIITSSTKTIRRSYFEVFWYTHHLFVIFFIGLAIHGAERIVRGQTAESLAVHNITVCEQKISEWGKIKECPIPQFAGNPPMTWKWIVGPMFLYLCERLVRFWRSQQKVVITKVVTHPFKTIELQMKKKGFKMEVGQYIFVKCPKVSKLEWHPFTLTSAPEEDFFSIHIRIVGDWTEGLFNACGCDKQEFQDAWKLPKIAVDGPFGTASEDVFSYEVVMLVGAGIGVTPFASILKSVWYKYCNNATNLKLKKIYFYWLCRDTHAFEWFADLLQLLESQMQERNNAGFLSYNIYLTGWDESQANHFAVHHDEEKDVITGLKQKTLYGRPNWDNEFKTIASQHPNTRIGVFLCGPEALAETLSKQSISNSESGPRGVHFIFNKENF
T1 sequence (P13498 2-195 partner limits assumed): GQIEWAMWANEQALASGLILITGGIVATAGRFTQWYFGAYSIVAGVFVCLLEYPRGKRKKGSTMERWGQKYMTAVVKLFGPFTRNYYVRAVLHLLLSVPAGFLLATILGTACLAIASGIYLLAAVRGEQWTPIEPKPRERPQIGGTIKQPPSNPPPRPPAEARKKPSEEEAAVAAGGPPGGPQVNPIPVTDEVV
Experiment: NOX2 activity assay: PMA-induced ROS in ATRA-differentiated HL-60 cells (WST-1 or Amplex Red/HRP probe)
Assay type: cell-based
Conditions: for pIC50: WST-1 probe, differentiated HL-60, 200 ng/mL PMA, read-out: Inhibitory ability (NOX2); for NOX2 inhibitory ability, verbal rating: WST-1, comment on Table 1
Protocol: NOX activity was evaluated by measuring the reactive oxygen species (ROS) produced by NOX. The probes that were used to measure ROS were water soluble tetrazolium-1 (WST-1, superoxide-specific colorimetric probe) and Amplex Red/horseradish peroxidase (AR/HRP, hydrogen peroxide-specific fluorometric probe), and the concentration of the probes used was […]. For WST-1, the change in the absorbance at 450 nm was measured, and, for AR, the change in fluorescence signals was measured at 560 nm and 585 nm, respectively for excitation wavelength (Ex) and emission wavelength (Em). The optical signal was measured using the SpectraMax M3 microplate reader from Molecular Devices at 37° C. for 60 minutes.
Used for the NOX2 activity assay was human leukemia 60 cells (HL-60), which are widely, universally used to assess NOX2 activity. 1×10^5 cells/mL of HL-60 were treated with […] all-trans-retinoic acid (ATRA) for 4 days to induce differentiation. Differentiated HL-60 (diff. HL-60) was centrifuged at 200 g for 5 minutes and washed twice with HBSS. Differentiation was induced to reach 3×10^4 cells/well on a 96-well plate (diff). HL-60 was seeded. The test material was treated to cells and left in a 37° C. incubator for 60 minutes. As a control group, the same concentration of DMSO, which is the vehicle of the test material, was used. 200 ng/mL phorbol 12-myristate 13-acetate (PMA) was used as the NOX2 activator, and the production amount of ROS induced by PMA was measured for 60 minutes. […] diphenyleneiodonium (DPI), which is well known to inhibit NOX, was used as a positive control group to evaluate whether the NOX2 activity tester properly operates.

Compound | pIC50 | NOX2 inhibitory ability, verbal rating
CC12CC(NC(=O)N1c1cccc(C(=O)N3CCc4cc(F)ccc4C3)c1)c1cc(Br)ccc1O2 (stereo not shown) [Compound 27b, 8-Bromo-3-(3-(6-fluoro-1,2,3,4-tetrahydroisoquinoline-2-carbonyl)phenyl)-2-methyl-5,6-dihydro-2H-2,6-methanobenzo[g][1,3,5]oxadiazocin-4(3H)-one] | 5.00 to 6.00 | –
CC12CC(NC(=O)N1c1cccc(C(=O)N3CCc4cccc(F)c4C3)c1)c1cc(Br)ccc1O2 (stereo not shown) [Compound 27c, 8-Bromo-3-(3-(8-fluoro-1,2,3,4-tetrahydroisoquinoline-2-carbonyl)phenyl)-2-methyl-5,6-dihydro-2H-2,6-methanobenzo[g][1,3,5]oxadiazocin-4(3H)-one] | < 5.00 | –
CC12CC(NC(=O)N1c1cccc(C(=O)N3CCc4c(cccc4C(F)(F)F)C3)c1)c1cc(Br)ccc1O2 (stereo not shown) [Compound 27e, 8-Bromo-2-methyl-3-(3-(5-(trifluoromethyl)-1,2,3,4-tetrahydroisoquinoline-2-carbonyl)phenyl)-5,6-dihydro-2H-2,6-methanobenzo[g][1,3,5]oxadiazocin-4(3H)-one] | 5.00 to 6.00 | –
CC12CC(NC(=O)N1c1cccc(C(=O)N3CCc4cc(C(F)(F)F)ccc4C3)c1)c1cc(Br)ccc1O2 (stereo not shown) [Compound 27h, 8-Bromo-2-methyl-3-(3-(6-(trifluoromethyl)-1,2,3,4-tetrahydroisoquinoline-2-carbonyl)phenyl)-5,6-dihydro-2H-2,6-methanobenzo[g][1,3,5]oxadiazocin-4(3H)-one] | 5.00 to 6.00 | –
CC12CC(NC(=O)N1c1cccc(C(=O)N3CCc4ccc(F)cc4C3)c1)c1cc(-c3ccoc3)ccc1O2 (stereo not shown) [Compound 28a, 3-(3-(7-Fluoro-1,2,3,4-tetrahydroisoquinoline-2-carbonyl)phenyl)-8-(furan-3-yl)-2-methyl-5,6-dihydro-2H-2,6-methanobenzo[g][1,3,5]oxadiazocin-4(3H)-one] | 5.00 to 6.00 | –
CC12CC(NC(=O)N1c1cccc(C(=O)N3CCc4cc(F)ccc4C3)c1)c1cc(-c3ccoc3)ccc1O2 (stereo not shown) [Compound 28b, 3-(3-(6-Fluoro-1,2,3,4-tetrahydroisoquinoline-2-carbonyl)phenyl)-8-(furan-3-yl)-2-methyl-5,6-dihydro-2H-2,6-methanobenzo[g][1,3,5]oxadiazocin-4(3H)-one] | 5.00 to 6.00 | excellent inhibitory ability
CC12CC(NC(=O)N1c1cccc(C(=O)N3CCc4cccc(F)c4C3)c1)c1cc(-c3ccoc3)ccc1O2 (stereo not shown) [Compound 28c, 3-(3-(8-Fluoro-1,2,3,4-tetrahydroisoquinoline-2-carbonyl)phenyl)-8-(furan-3-yl)-2-methyl-5,6-dihydro-2H-2,6-methanobenzo[g][1,3,5]oxadiazocin-4(3H)-one] | < 5.00 | excellent inhibitory ability
CC12CC(NC(=O)N1c1cccc(C(=O)N3CCc4c(F)cccc4C3)c1)c1cc(-c3ccoc3)ccc1O2 (stereo not shown) [Compound 28d, 3-(3-(5-Fluoro-1,2,3,4-tetrahydroisoquinoline-2-carbonyl)phenyl)-8-(furan-3-yl)-2-methyl-5,6-dihydro-2H-2,6-methanobenzo[g][1,3,5]oxadiazocin-4(3H)-one] | < 5.00 | excellent inhibitory ability
CC12CC(NC(=O)N1c1cccc(C(=O)N3CCc4c(cccc4C(F)(F)F)C3)c1)c1cc(-c3ccoc3)ccc1O2 (stereo not shown) [Compound 28e, 8-(Furan-3-yl)-2-methyl-3-(3-(5-(trifluoromethyl)-1,2,3,4-tetrahydroisoquinoline-2-carbonyl)phenyl)-5,6-dihydro-2H-2,6-methanobenzo[g][1,3,5]oxadiazocin-4(3H)-one] | 5.00 to 6.00 | –
CC12CC(NC(=O)N1c1cccc(C(=O)N3CCc4ccc(C(F)(F)F)cc4C3)c1)c1cc(-c3ccoc3)ccc1O2 (stereo not shown) [Compound 28f, 8-(Furan-3-yl)-2-methyl-3-(3-(7-(trifluoromethyl)-1,2,3,4-tetrahydroisoquinoline-2-carbonyl)phenyl)-5,6-dihydro-2H-2,6-methanobenzo[g][1,3,5]oxadiazocin-4(3H)-one] | < 5.00 | –
